The text below walks through data of publication PMC5827777, “Synthesis and biological evaluation of RGD and isoDGR peptidomimetic-α-amanitin conjugates for tumor-targeting” (Beilstein Journal of Organic Chemistry, 2018).

Read-outs that look alike come from different tables or passages of the source.

For assay [1], the system named is MDA-MB-468 cells (breast adenocarcinoma, αVβ3−). Briefly: cells. It is filed as cell-based. As to conditions: 96 hours treatment, triplicate, read-out: IC50 MDA-MB-468 (αVβ3−), inhibition of cell viability. As to the method:
(§1) The cell lines were treated with different concentrations of the free drug α-amanitin and conjugates 7–11 for 96 hours. […]
(§2) described recently.[S1] The SNP profiles matched known profiles or were unique. The purity of the cell lines was validated using the Multiplex cell Contamination Test by Multiplexion (Heidelberg, Germany) as described recently.[S2] No mycoplasma, SMRV or interspecies contamination was detected. U87-MG, MDA-MB 468 and A549 cells were cultivated continuously for not more than 3 months in MEM Eagle´s, DMEM or Ham´s F12 medium, respectively, supplemented with 10% heat inactivated fetus calf serum, L-glutamine and antibiotics. Cell lines were maintained at 37 °C and 5% CO2 in a high humidity atmosphere.
(§3) Cell therapy and viability assay
(§4) Cell viability assays were performed in U87-MG, A549 and MDA-MB 468 cell lines according to the following procedure: 2 × 10^3 cells/well were plated in 96-well black clear bottom plates (Perkin Elmer) and incubated overnight. 1:5 serial dilutions of compounds 7–11 were prepared in cell culture media. The compounds were added to the cell culture and incubated for additional 96 h. Starting concentration of compounds 7–11 in the wells was 1 × 10−5 M and cell viability was determined with the CellTiterGlo 2.0 assay (Promega) in accordance to manufacturer’s instructions. The cell viability was calculated in relation to the non-treated controls for each cell line. All samples were measured in triplicate. Data analysis was carried out using software GraphPad Prism (GraphPad Software Inc., La Jolla, CA, USA). […]
(§5) [S1] F. Castro, W. G. Dirks, S. Fähnrich, A. Hotz-Wagenblatt, M. Pawlita, M. Schmitt, Int. J. Cancer […]
(§6) [S2] M. Schmitt, M. Pawlita, Nucleic Acids Res. 2009, 37, e119.

In assay [2] the test system is U87 cells (human glioblastoma, αVβ3+). Briefly: cells. It is filed as cell-based. As to conditions: for IC50: 96 hours treatment, triplicate, read-out: IC50 U87 (αVβ3+), inhibition of cell viability. Here is the method:
as §1, §2, §3
Cell viability assays were performed in U87-MG, A549 and MDA-MB 468 cell lines according to the following procedure: 2 × 10^3 cells/well were plated in 96-well black clear bottom plates (Perkin Elmer) and incubated overnight. 1:5 serial dilutions of compounds 7–11 were prepared in cell culture media. The compounds were added to the cell culture and incubated for additional 96 h. Starting concentration of compounds 7–11 in the wells was 1 × 10−5 M and cell viability was determined with the CellTiterGlo 2.0 assay (Promega) in accordance to manufacturer’s instructions. The cell viability was calculated in relation to the non-treated controls for each cell line. All samples were measured in triplicate. Data analysis was carried out using software GraphPad Prism (GraphPad Software Inc., La Jolla, CA, USA).
Competition experiment of compounds 10 and 11
The competition experiment s were performed in U87-MG and MDA-MB 468 cell lines according to the following procedure: 2 × 10^3 cells/well were plated in 96-well black clear bottom plates (Perkin Elmer) and incubated overnight. A solution containing 1 × 10−4 M of the conjugates 10 or 11 and 5 × 10−3 M of cilengitide (50-fold excess of ligand in comparison to the conjugate) was prepared in the growth medium and 1:5 serial dilutions were prepared in cell culture media. The compounds were added to cell culture and incubated for 96 h. The starting concentration of the compounds in the wells was 0.01 mM whereas that of cilengitide was 0.5 mM. The cell viability was determined with the CellTiterGlo 2.0 assay (Promega) in accordance to manufacturer’s instructions and the viability was calculated in relation to the non-treated controls for each cell line. All samples were measured in triplicate. Data analysis was carried out using software GraphPad Prism (GraphPad Software Inc., La Jolla, CA, USA).
as §5, §6

Assay [3] deals with A549 cells (human lung carcinoma, αVβ3−). Briefly: cells. It is filed as cell-based. As to the method:
as §1, §2, §3, §4

For assay [4], the system named is αVβ3 positive and αVβ3 negative cell line. On the set-up: method as in PMID 28449309. As to conditions: αVβ3 positive vs αVβ3 negative cell line; cited from earlier work.
Assay [5] concerns αVβ5 receptor. Briefly: Inhibition of biotinylated vitronectin binding to αVβ5 receptor. As to conditions: ratio of IC50 values of Table 1.
The target in assay [6] is αVβ5 receptor. Also on record: method as in PMID 22517378, PMID 23424096. The note with it: free ligands, Table 1; mean ± SD of triplicate determinations; read-out: IC50 αVβ5, inhibition of biotinylated vitronectin binding; cited from earlier work.
Assay [7] addresses T1, Recombinant human integrin αVβ3 (Homo sapiens, UniProt P05106+P06756).
T1 construct: purchased R&D Systems, Minneapolis, MN, USA
Briefly: Inhibition of biotinylated vitronectin binding to purified αVβ3 receptor (solid phase receptor binding assay). As to conditions: conjugates, Table 2; mean ± SD of triplicate determinations. Here is the method: Conjugates 7–11 were evaluated for their ability to inhibit biotinylated vitronectin binding to the purified αVβ3 receptor. Screening assays were performed by incubating the immobilized integrin receptor with solutions of the cyclo[DKP-RGD]-α-amanitin and cyclo[DKP-isoDGR]-α-amanitin conjugates 7–11 at different concentrations (10^−12 to 10^−5 M) in the presence of biotinylated vitronectin (1 µg mL^−1) and measuring bound vitronectin. […]
to assist the dissolution). The solution obtained was filtered (polypropylene, 0.45 μm, 13 mm ø, PK/100) and injected in the HPLC, affording purified products. Purity analyses were carried on a Dionex Ultimate 3000 instrument equipped with a Dionex RS Variable Wavelenght detector (column: Atlantis® Prep T3 OBDTM 5 μm 19 × 100 mm). The analyte (1 mg) was dissolved in 1 mL of H2O and was injected using the same gradient used in the purification step. The analysis of the integrals and the relative percentage of purity were performed with the software Chromeleon 6.80 SR11 Build 3161. Also, preparative HPLC LaPrep∑ equipped with autosampler AS3950 and a Phenomenex Luna C-18(2) column, 10 µm, 250 × 21.2 mm, with precolumn at 30 mL/min flow rate and analytical HPLC performed on Hitachi Chromaster (column oven Chromaster 5310, pump Chromaster 5110, autosampler Chromaster 5210, DAD Chromaster 5430) equipped with a Phenomenex Luna C-18(2) column, 10 µm, 250 × 4.6 mm, with precolumn at 1.4 mL/min flow rate were used. Freeze-drying: The product was dissolved in water and frozen with dry ice. The freeze-drying was carried out at least for 48 h at −50 °C using the instrument 5Pascal Lio5P DGT.
Solid phase receptor binding assays
Recombinant human integrin αVβ3 (R&D Systems, Minneapolis, MN, USA) was diluted to 0.5 µg/mL in coating buffer containing 20 mM Tris-HCl (pH 7.4), 150 mM NaCl, 1 mM MnCl2, 2 mM CaCl2, and 1 mM MgCl2. […] Absorbance at 415 nm was read in a SynergyTM HT Multi-Detection Microplate Reader (BioTek Instruments, Inc.). […]

For the next assay, the system named is αVβ3. Also on record: method as in PMID 28074920. As to conditions: read-out: IC50 αVβ3 binding; cited from earlier work.
For another assay, the system named is αVβ5. Also on record: method as in PMID 28074920. As to conditions: read-out: IC50 αVβ5 binding; cited from earlier work.
A further assay concerns α5β1. Also on record: method as in PMID 28074920. The note with it: read-out: IC50 α5β1 binding; cited from earlier work.

T1 sequence (P06756 31-992 limits assumed): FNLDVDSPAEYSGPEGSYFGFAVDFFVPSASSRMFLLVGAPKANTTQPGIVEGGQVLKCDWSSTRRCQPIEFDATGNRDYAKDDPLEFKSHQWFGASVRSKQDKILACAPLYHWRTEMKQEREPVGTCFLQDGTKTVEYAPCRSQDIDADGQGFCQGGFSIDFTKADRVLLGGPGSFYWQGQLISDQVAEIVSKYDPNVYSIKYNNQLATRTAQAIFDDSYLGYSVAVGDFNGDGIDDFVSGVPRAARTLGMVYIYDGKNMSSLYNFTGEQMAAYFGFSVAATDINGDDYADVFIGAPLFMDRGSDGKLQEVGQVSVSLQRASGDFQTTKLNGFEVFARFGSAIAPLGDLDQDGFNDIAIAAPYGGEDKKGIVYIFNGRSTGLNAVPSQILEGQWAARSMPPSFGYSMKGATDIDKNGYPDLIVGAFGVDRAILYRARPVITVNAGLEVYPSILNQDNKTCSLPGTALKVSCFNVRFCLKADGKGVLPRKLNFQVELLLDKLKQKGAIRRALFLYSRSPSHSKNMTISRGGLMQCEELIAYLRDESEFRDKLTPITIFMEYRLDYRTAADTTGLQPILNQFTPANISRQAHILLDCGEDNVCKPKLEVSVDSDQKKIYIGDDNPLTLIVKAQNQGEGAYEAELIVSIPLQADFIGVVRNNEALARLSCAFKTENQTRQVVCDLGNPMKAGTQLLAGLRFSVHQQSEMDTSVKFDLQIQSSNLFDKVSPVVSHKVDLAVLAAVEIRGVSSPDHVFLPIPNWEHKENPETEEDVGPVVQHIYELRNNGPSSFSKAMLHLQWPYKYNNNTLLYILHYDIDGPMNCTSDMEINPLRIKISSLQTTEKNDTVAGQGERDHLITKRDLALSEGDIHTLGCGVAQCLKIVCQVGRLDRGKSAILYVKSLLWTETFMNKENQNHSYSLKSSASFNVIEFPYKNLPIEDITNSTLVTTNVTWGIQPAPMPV
T1 sequence (P05106 27-718 limits assumed): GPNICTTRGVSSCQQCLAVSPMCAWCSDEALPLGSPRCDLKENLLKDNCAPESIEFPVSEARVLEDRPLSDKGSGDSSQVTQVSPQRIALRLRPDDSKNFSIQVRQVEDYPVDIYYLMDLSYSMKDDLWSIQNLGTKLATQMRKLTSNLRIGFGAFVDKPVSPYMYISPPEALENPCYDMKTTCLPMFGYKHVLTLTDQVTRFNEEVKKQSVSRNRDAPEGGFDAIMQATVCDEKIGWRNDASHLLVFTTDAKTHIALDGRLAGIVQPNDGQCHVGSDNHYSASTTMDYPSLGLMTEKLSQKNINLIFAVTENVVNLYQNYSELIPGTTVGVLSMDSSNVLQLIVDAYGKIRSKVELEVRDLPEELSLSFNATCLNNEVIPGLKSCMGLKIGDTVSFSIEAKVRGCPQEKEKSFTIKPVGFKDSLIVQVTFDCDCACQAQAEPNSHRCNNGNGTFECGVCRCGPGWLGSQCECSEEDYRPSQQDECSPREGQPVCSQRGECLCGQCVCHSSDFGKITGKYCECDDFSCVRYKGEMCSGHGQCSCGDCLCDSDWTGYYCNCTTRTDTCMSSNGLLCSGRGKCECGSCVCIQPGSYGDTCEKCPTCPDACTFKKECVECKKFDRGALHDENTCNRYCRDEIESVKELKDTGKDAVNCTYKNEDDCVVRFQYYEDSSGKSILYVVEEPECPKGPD

Broadly, the IC50 is the point on the concentration scale where inhibition reaches its midpoint. Regarding `CC[C@H](C)[C@@H]1NC(=O)CNC(=O)[C@@H]2Cc3c([nH]c4cc(O)ccc34)[S@+]([O-])C[C@H](NC(=O)CNC1=O)C(=O)N[C@@H](CC(N)=O)C(=O)N1C[C@H](O)C[C@H]1C(=O)N[C@@H]([C@@H](C)[C@@H](O)CO)C(=O)N2` [α-amanitin], the IC50 in [1] (Homo sapiens, MDA-MB-468) stood at 185 ± 49.6 nM; in assay [2] (Homo sapiens, U-87 MG) it was 347 ± 132 nM; in assay [3] (Homo sapiens, A549, 96 hours treatment, triplicate, read-out: IC50 A549 (αVβ3−), inhibition of cell viability), 518 ± 305 nM.

Turning to `CC(=O)O[C@H]1C(=O)[C@@]2(C)[C@H]([C@H](OC(=O)c3ccccc3)[C@]3(O)C[C@H](OC(=O)[C@H](OC(=O)N(C)CCN(C)C(=O)OCc4ccc(NC(=O)[C@H](C)NC(=O)[C@@H](NC(=O)CCCC(=O)NCc5ccc(CN6C(=O)[C@H]7CC(=O)N[C@@H](CCCNC(=N)N)C(=O)NCC(=O)N[C@@H](CC(=O)O)C(=O)NC[C@H]6C(=O)N7)cc5)C(C)C)cc4)[C@@H](NC(=O)c4ccccc4)c4ccccc4)C(C)=C1C3(C)C)[C@]1(OC(C)=O)CO[C@@H]1C[C@@H]2O` [Conjugate 5, cyclo[DKP-RGD]-Val-Ala-PTX], the “targeting index (TI)” value in assay [4] is on record as 2.4.

With `N=C(N)NCCC[C@@H]1NC(=O)C[C@H]2NC(=O)[C@H](CNC(=O)[C@H](CC(=O)O)NC(=O)CNC1=O)N(Cc1ccccc1)C2=O` [Ligand 1, cyclo[DKP-RGD]], the “selectivity for αVβ3 in comparison with integrin αVβ5” value in the assay with αVβ5 receptor [5] is reported as 33–34 times. The IC50 at αVβ5 receptor [6] is 149 ± 25 nM.

Consider `CC[C@H](C)[C@@H]1NC(=O)CNC(=O)[C@@H]2Cc3c([nH]c4cc(OCCCCCCNC(=O)CCCC(=O)NCc5ccc(CN6C(=O)[C@H]7CC(=O)N[C@@H](CCCNC(=N)N)C(=O)NCC(=O)N[C@@H](CC(=O)O)C(=O)NC[C@H]6C(=O)N7)cc5)ccc34)[S+]([O-])C[C@H](NC(=O)CNC1=O)C(=O)N[C@@H](CC(N)=O)C(=O)N1C[C@H](O)C[C@H]1C(=O)N[C@@H]([C@@H](C)[C@@H](O)CO)C(=O)N2` (stereo partly drawn) [Compound 7, cyclo[DKP-RGD]-uncleavable-α-amanitin], for which the IC50 was 1110 ± 228 nM in assay [1], 2550 ± 37.6 nM in assay [2] and 11.6 ± 2.4 nM in [7].

Take `CC[C@H](C)[C@@H]1NC(=O)CNC(=O)[C@@H]2Cc3c([nH]c4cc(OCc5ccc(NC(=O)[C@H](C)NC(=O)[C@@H](NC(=O)CCc6cn(CCOCCOCCOCCOCC(=O)NCc7ccc(CN8C(=O)[C@H]9CC(=O)N[C@H](C(=O)O)CC(=O)NCC(=O)N[C@@H](CCCNC(=N)N)C(=O)NC[C@H]8C(=O)N9)cc7)nn6)C(C)C)cc5)ccc34)[S+]([O-])C[C@H](NC(=O)CNC1=O)C(=O)N[C@@H](CC(N)=O)C(=O)N1C[C@H](O)C[C@H]1C(=O)N[C@@H]([C@@H](C)[C@@H](O)CO)C(=O)N2` (stereo partly drawn) [Compound 11, cyclo[DKP-isoDGR]-PEG-4-Val-Ala-α-amanitin]: the “more potent than α-amanitin” value in assay [2] (in U87 and MDA-MB-468 cell lines, Table 3 entry 1 vs entry 6) is 2.1–2.8 times. Besides, the “less potent than the free drug (α-amanitin)” value in assay [3] (A549 cell line) came to 1.4 times.

For the molecule `CC(=O)O[C@H]1C(=O)[C@@]2(C)[C@H]([C@H](OC(=O)c3ccccc3)[C@]3(O)C[C@H](OC(=O)[C@H](OC(=O)N(C)CCN(C)C(=O)OCc4ccc(NC(=O)[C@H](C)NC(=O)[C@@H](NC(=O)CCCC(=O)NCc5ccc(CN6C(=O)[C@H]7CC(=O)N[C@H](C(=O)O)CC(=O)NCC(=O)N[C@@H](CCCNC(=N)N)C(=O)NC[C@H]6C(=O)N7)cc5)C(C)C)cc4)[C@@H](NC(=O)c4ccccc4)c4ccccc4)C(C)=C1C3(C)C)[C@]1(OC(C)=O)CO[C@@H]1C[C@@H]2O` [Conjugate 6, cyclo[DKP-isoDGR]-Val-Ala-PTX], the “targeting index (TI)” value in assay [4] is on record as 9.9.

As to cilengitide, the IC50 is 0.6 nM with αVβ3, 8.4 nM in the assay with αVβ5 and 14.9 nM in the assay with α5β1.

For the molecule `CC[C@H](C)[C@@H]1NC(=O)CNC(=O)[C@@H]2Cc3c([nH]c4cc(OCCCCCCNC(=O)CCCC(=O)NCc5ccc(CN6C(=O)[C@H]7CC(=O)N[C@H](C(=O)O)CC(=O)NCC(=O)N[C@@H](CCCNC(=N)N)C(=O)NC[C@H]6C(=O)N7)cc5)ccc34)[S+]([O-])C[C@H](NC(=O)CNC1=O)C(=O)N[C@@H](CC(N)=O)C(=O)N1C[C@H](O)C[C@H]1C(=O)N[C@@H]([C@@H](C)[C@@H](O)CO)C(=O)N2` (stereo partly drawn) [Compound 8, cyclo[DKP-isoDGR]-uncleavable-α-amanitin], the IC50 in assay [1] amounted to 2200 ± 96.2 nM; in assay [2] it was 3355 ± 19.1 nM; in assay [7] it was 6.8 ± 4.3 nM.
